Results published in patent US20190106460A1, “BINDING INHIBITORS OF THE BETA. TRANSDUCIN REPEAT-CONTAINING PROTEIN” (priority 2011, published 2019).
Read-outs that look alike come from different tables or passages of the source. Blank lines part the entries; values can stand above or below the molecule they belong to. Starred links: 1 amine or outer side, 2 acyl side, 3 side chain; linkers in the order of their positions; H or OH if unused. Non-standard residues stand in square brackets, D forms with d. Residues, ends and D or L forms follow the SMILES beside them. No end group written: not given here. *: point of attachment. Phe(4-NO2) = N[C@@H](Cc1ccc([N+](=O)[O-])cc1)C(=O)O; Benzenesulfonyl(4-OMe) = COc1ccc(S(=O)(=O)*)cc1; Benzoyl(2-COOH) = O=C(O)c1ccccc1C(=O)*; Phe(3-F) = N[C@@H](Cc1cccc(F)c1)C(=O)O; 1Nal = N[C@@H](Cc1cccc2ccccc12)C(=O)O; pS = N[C@@H](COP(=O)(O)O)C(=O)O; X4 = O=S(=O)(c1ccc(Cl)cc1Cl)*; Fumaroyl = O=C(O)/C=C/C(=O)*; Suc = O=C(CCC(=O)[*:2])[*:1]; Tos = Cc1ccc(S(=O)(=O)*)cc1; MeOSuc = COC(=O)CCC(=O)*

Assays:
FBW7/Skp1 = FBW7/Skp1 (Homo sapiens, UniProt Q969H0); experiment: Selectivity assay vs other E3s: Fbw7; assay type: biochemical; settings: for inhibition at 100 µM: value in brackets, read-out: % Inhibition Fbw7 @ (100 μM); for inhibition at 10 µM: read-out: % Inhibition Fbw7 @ 10 μM
Method: (§1) βTrCP Ubiquitination Assay and Selectivity Assays
(§2) Master mixes were prepared in a 50 mM Herpes buffer at pH 7.5, in 75 mM NaCl and 1 mM DTT without Mg or ATP and peptides were added to a final concentration of 100 μM. Reactions were incubated at room temperature for 30 minutes and then Mg/ATP was added to the mix. Reactions were further incubated for an additional 60 minutes and then stopped by adding SDS gel loading buffer and boiled for 5 minutes. Reactions were run on SDS-PAGE (10%) and transferred to nitrocellulose membranes and probed with HRP-Streptavidin.
FBW7 selectivity assays were performed in the same manner except using FBW7/Skp1 as E3 component and cyclin E as the substrate. Blots were probed using anti-cyclin E antibody.
(§3) Candidate compounds were tested for inhibition of Fbw7 and Skp2 as described above.

Skp2 = Skp2 (Homo sapiens, UniProt Q13309); experiment: Selectivity assay vs other E3s: Skp2; assay type: biochemical; settings: for inhibition at 100 µM: value in brackets, read-out: % Inhibition Skp2 @ (100 μM); for inhibition at 10 µM: read-out: % Inhibition Skp2 @ 10 μM
Method: as §1, §2, §3

βTrCP = βTrCP (Homo sapiens, UniProt Q9Y297); experiment: Fluorescence polarisation (FP) binding assay with fluorescein-tagged IκB peptide
[1] = Table 11, with spread, read-out: FP IC50/μM
[2] = Tables 1, 3, 7, 8, 10 nM fluorescein-tagged IκB peptide, read-out: FP Assay IC50/μM

Sequence of βTrCP (Q9Y297 whole entry): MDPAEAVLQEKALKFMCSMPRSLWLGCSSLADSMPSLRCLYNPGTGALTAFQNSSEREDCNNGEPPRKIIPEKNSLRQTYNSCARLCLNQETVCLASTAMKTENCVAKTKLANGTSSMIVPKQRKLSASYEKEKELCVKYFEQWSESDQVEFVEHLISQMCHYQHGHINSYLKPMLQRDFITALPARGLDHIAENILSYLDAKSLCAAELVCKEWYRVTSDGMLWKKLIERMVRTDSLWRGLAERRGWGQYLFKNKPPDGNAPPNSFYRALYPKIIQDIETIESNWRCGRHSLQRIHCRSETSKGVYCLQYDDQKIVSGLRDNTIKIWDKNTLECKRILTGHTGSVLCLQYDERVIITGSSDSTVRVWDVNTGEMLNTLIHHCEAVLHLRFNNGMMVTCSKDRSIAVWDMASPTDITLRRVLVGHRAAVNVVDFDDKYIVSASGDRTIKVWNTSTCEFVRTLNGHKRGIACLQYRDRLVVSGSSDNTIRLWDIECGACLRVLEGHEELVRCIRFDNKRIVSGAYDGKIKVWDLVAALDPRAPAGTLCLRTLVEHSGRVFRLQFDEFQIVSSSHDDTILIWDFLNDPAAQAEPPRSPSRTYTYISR
Sequence of βTrCP (P63208 whole entry partner): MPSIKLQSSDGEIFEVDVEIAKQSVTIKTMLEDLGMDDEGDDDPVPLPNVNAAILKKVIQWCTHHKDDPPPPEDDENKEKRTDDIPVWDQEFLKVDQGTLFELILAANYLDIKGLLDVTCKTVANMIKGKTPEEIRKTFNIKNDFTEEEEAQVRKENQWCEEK
Sequence of Skp2 (Q13309 whole entry, species assumed): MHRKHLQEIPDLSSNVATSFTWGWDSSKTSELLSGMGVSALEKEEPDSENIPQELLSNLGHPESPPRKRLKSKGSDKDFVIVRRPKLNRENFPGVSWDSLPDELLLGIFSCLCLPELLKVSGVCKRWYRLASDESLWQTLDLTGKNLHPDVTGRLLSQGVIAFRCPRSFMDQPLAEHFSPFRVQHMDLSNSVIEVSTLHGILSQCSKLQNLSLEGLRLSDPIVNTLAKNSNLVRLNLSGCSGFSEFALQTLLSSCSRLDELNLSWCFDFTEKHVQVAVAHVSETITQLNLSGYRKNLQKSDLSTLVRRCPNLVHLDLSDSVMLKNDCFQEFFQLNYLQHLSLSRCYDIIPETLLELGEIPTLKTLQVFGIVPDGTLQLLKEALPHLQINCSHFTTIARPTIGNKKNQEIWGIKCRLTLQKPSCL
Sequence of Skp2 (P63208 whole entry partner, species assumed): as the sequence (P63208 whole entry partner) above
Sequence of Skp2 (Q13616 whole entry partner, species assumed): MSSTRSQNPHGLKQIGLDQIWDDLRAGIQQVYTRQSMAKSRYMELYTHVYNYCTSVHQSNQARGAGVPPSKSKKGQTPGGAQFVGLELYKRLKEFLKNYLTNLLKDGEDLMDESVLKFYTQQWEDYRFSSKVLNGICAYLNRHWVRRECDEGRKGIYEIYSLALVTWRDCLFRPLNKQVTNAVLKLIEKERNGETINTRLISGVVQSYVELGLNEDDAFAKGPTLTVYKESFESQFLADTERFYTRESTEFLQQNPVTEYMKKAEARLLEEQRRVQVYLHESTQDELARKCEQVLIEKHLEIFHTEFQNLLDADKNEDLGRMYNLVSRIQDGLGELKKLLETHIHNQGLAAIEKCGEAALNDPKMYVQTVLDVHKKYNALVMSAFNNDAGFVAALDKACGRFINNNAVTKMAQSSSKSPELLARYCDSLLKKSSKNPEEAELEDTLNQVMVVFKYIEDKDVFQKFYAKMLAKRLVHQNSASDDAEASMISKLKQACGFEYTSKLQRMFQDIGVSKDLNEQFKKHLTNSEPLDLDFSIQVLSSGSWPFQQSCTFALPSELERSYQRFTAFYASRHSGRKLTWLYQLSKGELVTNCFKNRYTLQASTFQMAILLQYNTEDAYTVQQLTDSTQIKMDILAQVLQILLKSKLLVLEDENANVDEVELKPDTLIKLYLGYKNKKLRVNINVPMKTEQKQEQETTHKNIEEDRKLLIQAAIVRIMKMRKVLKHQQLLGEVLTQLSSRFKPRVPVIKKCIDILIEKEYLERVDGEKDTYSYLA
Sequence of Skp2 (P62877 whole entry partner, species assumed): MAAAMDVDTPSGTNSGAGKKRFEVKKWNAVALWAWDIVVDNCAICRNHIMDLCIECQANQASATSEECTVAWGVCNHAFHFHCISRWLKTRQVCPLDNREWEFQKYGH
Sequence of FBW7/Skp1 (Q969H0 whole entry, species assumed): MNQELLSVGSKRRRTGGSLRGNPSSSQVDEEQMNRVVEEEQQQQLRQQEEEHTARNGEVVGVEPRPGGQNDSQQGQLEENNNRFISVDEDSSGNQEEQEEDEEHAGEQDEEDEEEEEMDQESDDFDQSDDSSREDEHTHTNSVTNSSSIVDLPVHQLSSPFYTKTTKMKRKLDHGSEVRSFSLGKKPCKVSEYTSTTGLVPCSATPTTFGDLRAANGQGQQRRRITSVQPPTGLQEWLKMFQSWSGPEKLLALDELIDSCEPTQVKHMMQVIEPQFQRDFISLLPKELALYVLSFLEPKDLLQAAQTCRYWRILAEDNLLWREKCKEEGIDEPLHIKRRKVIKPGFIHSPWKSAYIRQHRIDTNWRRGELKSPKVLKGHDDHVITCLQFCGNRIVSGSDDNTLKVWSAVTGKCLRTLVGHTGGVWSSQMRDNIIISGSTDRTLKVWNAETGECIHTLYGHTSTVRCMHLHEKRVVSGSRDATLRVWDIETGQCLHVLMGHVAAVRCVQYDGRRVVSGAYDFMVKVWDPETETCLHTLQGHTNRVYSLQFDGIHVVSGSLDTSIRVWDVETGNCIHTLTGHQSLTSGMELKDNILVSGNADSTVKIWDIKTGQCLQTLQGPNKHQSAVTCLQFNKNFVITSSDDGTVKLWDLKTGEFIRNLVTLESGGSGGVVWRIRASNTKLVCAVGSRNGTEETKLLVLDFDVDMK
Sequence of FBW7/Skp1 (P63208 whole entry partner, species assumed): as the sequence (P63208 whole entry partner) above
Sequence of FBW7/Skp1 (Q13616 whole entry partner, species assumed): as the sequence (Q13616 whole entry partner, species assumed) above
Sequence of FBW7/Skp1 (P62877 whole entry partner, species assumed): as the sequence (P62877 whole entry partner, species assumed) above

Molecule: Cc1ccc(S(=O)(=O)N[C@@H](CC(=O)O)C(=O)N[C@@H](CCC(=O)O)C(=O)NCC(=O)N[C@@H](Cc2cccc(F)c2)C(=O)N[C@@H](Cc2c[nH]c3ccccc23)C(=O)N[C@@H](CCC(=O)O)C(N)=O)cc1 [Ts-DEGF(3F)WE-NH2] (Tos-DEG[Phe(3-F)]WE-NH2)
inhibition at 100 µM (FBW7/Skp1): 8%
inhibition at 10 µM (FBW7/Skp1): 0%
inhibition at 100 µM (Skp2): 7%
inhibition at 10 µM (Skp2): 0%
IC50 (βTrCP; [1]): 0.018 ± 0.002 µM

Molecule: Cc1ccc(S(=O)(=O)N[C@H](CC(=O)O)C(=O)N[C@@H](CCC(=O)O)C(=O)NCC(=O)N[C@@H](Cc2cccc(F)c2)C(=O)N[C@@H](Cc2c[nH]c3ccccc23)C(=O)N[C@@H](CCC(=O)O)C(N)=O)cc1 [Ts-dEGF(3F)WE-NH2] (Tos-[dD]EG[Phe(3-F)]WE-NH2)
inhibition at 100 µM (FBW7/Skp1): 0%
inhibition at 10 µM (FBW7/Skp1): 9%
inhibition at 100 µM (Skp2): 25%
inhibition at 10 µM (Skp2): 19%
IC50 (βTrCP; [1]): 0.029 ± 0.005 µM

Molecule: COc1ccc(S(=O)(=O)N[C@H](CC(=O)O)C(=O)N[C@@H](CCC(=O)O)C(=O)NCC(=O)N[C@@H](Cc2cccc(F)c2)C(=O)N[C@@H](Cc2c[nH]c3ccccc23)C(=O)N[C@@H](CCC(=O)O)C(N)=O)cc1 [4-(MeO)-PhSO2-dEGF(3F)WE-NH2] ({Benzenesulfonyl(4-OMe)}-[dD]EG[Phe(3-F)]WE-NH2)
inhibition at 100 µM (FBW7/Skp1): 18%
inhibition at 10 µM (FBW7/Skp1): 0%
inhibition at 100 µM (Skp2): 12%
inhibition at 10 µM (Skp2): 7%
IC50 (βTrCP; [1]): 0.017 ± 0.002 µM

Ki (βTrCP; FP dose-response): 27 nM
Molecule: NC(=O)[C@H](CCC(=O)O)NC(=O)[C@H](Cc1c[nH]c2ccccc12)NC(=O)[C@H](Cc1cccc(F)c1)NC(=O)CNC(=O)[C@H](CCC(=O)O)NC(=O)[C@@H](CC(=O)O)NS(=O)(=O)c1ccc(Cl)cc1Cl [UBP048, 2,4-(Cl)2-PhSO2-dEGF(3F)WE-NH2] (X4-[dD]EG[Phe(3-F)]WE-NH2)

IC50 (βTrCP; [2]): > 100 µM
Molecule: GDAGIHS-NH2 [GDAGIHS-NH2]

IC50 (βTrCP; [2]): > 100 µM
Molecule: DAGIHS-NH2 [DAGIHS-NH2]

IC50 (βTrCP; [2]): 34.5 µM
Molecule: CC[C@H](C)[C@H](NC(=O)CNC(=O)[C@H](COP(=O)(O)O)NC(=O)[C@@H](N)CCC(=O)O)C(=O)N[C@@H](Cc1ccccc1)C(=O)N[C@@H](CCC(=O)O)C(N)=O [E-pS-GIFE-NH2] (H-E[pS]GIFE-NH2)

IC50 (βTrCP; [2]): > 100 µM
Molecule: CC[C@H](C)[C@H](NC(=O)CNC(=O)[C@H](COP(=O)(O)O)NC(=O)[C@H](CC(=O)O)NC(=O)[C@H](C)N)C(=O)N[C@@H](Cc1c[nH]cn1)C(=O)N[C@@H](CO)C(N)=O [AD-pS-GIHS-NH2] (H-AD[pS]GIHS-NH2)

IC50 (βTrCP; [2]): 1.6 µM
Molecule: COC(=O)CCC(=O)N[C@@H](CCC(=O)O)C(=O)NCC(=O)N[C@@H](Cc1cccc(F)c1)C(=O)N[C@@H](Cc1cccc2ccccc12)C(=O)N[C@@H](CCC(=O)O)C(N)=O [(MeO)Suc-EG-F(3F)-1Nal-E-NH2] (MeOSuc-EG[Phe(3-F)][1Nal]E-NH2)

IC50 (βTrCP; [2]): > 100 µM
Molecule: DAGIFH-NH2 [DAGIFH-NH2]

IC50 (βTrCP; [2]): > 100 µM
Molecule: NC(=O)[C@H](CCC(=O)O)NC(=O)[C@H](Cc1cccc2ccccc12)NC(=O)[C@H](Cc1ccc([N+](=O)[O-])cc1)NC(=O)CNC(=O)[C@@H](N)CCC(=O)O [EG-F(4NO2)-1Nal-E-NH2] (H-EG[Phe(4-NO2)][1Nal]E-NH2)

IC50 (βTrCP; [2]): 14 µM
Molecule: NC(=O)[C@H](Cc1cccc2ccccc12)NC(=O)[C@H](Cc1ccc([N+](=O)[O-])cc1)NC(=O)CNC(=O)[C@H](CCC(=O)O)NC(=O)CCC(=O)O [Suc-EG-F(4NO2)-1Nal-NH2] (Suc-EG[Phe(4-NO2)][1Nal]-NH2)

IC50 (βTrCP; [2]): > 100 µM
Molecule: CC[C@H](C)[C@H](NC(=O)CNC(=O)[C@H](C)NC(=O)CCC(=O)O)C(=O)N[C@@H](Cc1ccccc1)C(=O)N[C@@H](CCC(=O)O)C(N)=O [Suc-AGIFE-NH2] (Suc-AGIFE-NH2)

IC50 (βTrCP; [2]): > 100 µM
Molecule: NC(=O)[C@H](CCC(=O)O)NC(=O)[C@H](Cc1cccc2ccccc12)NC(=O)[C@H](Cc1cccc(F)c1)NC(=O)CNC(=O)[C@@H](N)CCC(=O)O [EG-F(3F)-1Nal-E-NH2] (H-EG[Phe(3-F)][1Nal]E-NH2)

IC50 (βTrCP; [2]): 27.5 µM
Molecule: C[C@H](NC(=O)[C@H](CCC(=O)O)NC(=O)CCC(=O)O)C(=O)N[C@@H](Cc1cccc(F)c1)C(=O)N[C@@H](Cc1ccc([N+](=O)[O-])cc1)C(=O)N[C@@H](CCC(=O)O)C(N)=O [Suc-EA-F(3F)-F(4NO2)-E-NH2]

IC50 (βTrCP; [2]): > 100 µM
Molecule: C[C@H](NC(=O)c1ccccc1C(=O)O)C(=O)NCC(=O)N[C@@H](Cc1ccccc1)C(=O)N[C@@H](Cc1ccccc1)C(=O)N[C@@H](CCC(=O)O)C(N)=O [Phth-AGFFE-NH2] ({Benzoyl(2-COOH)}-AGFFE-NH2)

IC50 (βTrCP; [2]): > 100 µM
Molecule: NC(=O)[C@H](Cc1ccc([N+](=O)[O-])cc1)NC(=O)[C@H](Cc1cccc(F)c1)NC(=O)CNC(=O)[C@H](CCC(=O)O)NC(=O)CCC(=O)O [Suc-EG-F(3F)-F(4NO2)-NH2] (Suc-EG[Phe(3-F)][Phe(4-NO2)]-NH2)

IC50 (βTrCP; [2]): > 100 µM
Molecule: NC(=O)[C@H](CCC(=O)O)NC(=O)[C@H](Cc1ccc([N+](=O)[O-])cc1)NC(=O)[C@H](Cc1ccc(O)cc1)NC(=O)CNC(=O)[C@@H](N)CCC(=O)O [EGY-F(4NO2)-E-NH2] (H-EGY[Phe(4-NO2)]E-NH2)

Molecule: COc1ccc(S(=O)(=O)N[C@@H](CC(=O)O)C(=O)N[C@@H](CCC(=O)O)C(=O)NCC(=O)N[C@@H](Cc2cccc(F)c2)C(=O)N[C@@H](Cc2c[nH]c3ccccc23)C(=O)N[C@@H](CCC(=O)O)C(N)=O)cc1 [4-(MeO)-PhSO2-DEGF(3F)WE-NH2] ({Benzenesulfonyl(4-OMe)}-DEG[Phe(3-F)]WE-NH2)
inhibition at 100 µM (FBW7/Skp1): 8%
inhibition at 10 µM (FBW7/Skp1): 0%
inhibition at 100 µM (Skp2): 3%
inhibition at 10 µM (Skp2): 15%
IC50 (βTrCP; [1]): 0.027 ± 0.002 µM

IC50 (βTrCP; [2]): 60.4 µM
Molecule: NC(=O)[C@H](CCC(=O)O)NC(=O)[C@H](Cc1ccc([N+](=O)[O-])cc1)NC(=O)[C@H](Cc1cccc(F)c1)NC(=O)CNC(=O)[C@H](CCC(=O)O)NC(=O)/C=C/C(=O)O [Fum-EG-F(3F)-F(4NO2)-E-NH2] (Fumaroyl-EG[Phe(3-F)][Phe(4-NO2)]E-NH2)
